Structures can show the parent of a compound that is named as a salt. Where two headings read alike, the source gives them in different places. Blank lines part the entries; values can stand above or below the compound they belong to.
Key:
[1] = test system: dopamine D1; details: cited from earlier work
[2] = target: dopamine D1 receptor (Rattus norvegicus, UniProt P18901); experiment: biochemical; details: read-out: Ki, dopamine stimulated adenylate cyclase
Description: Ki is the affinity of the tested compound for the dopamine D1 receptor as estimated from Schild analysis.

[3] = Life Sci. 34 (1984), 1529; cited from earlier work
[4] = test system: mice; experiment: acute toxicity in mice, intraperitoneal; type: in vivo; details: 100 mg/kg intraperitoneal
Description: (§1) 8-chloro-7-hydroxy-3-methyl-5-(5-indanyl)-2,3,4,5-tetrahydro-1H-3-benzazepine and several other compounds of formula I were atoxic when given to rats and mice in a dosis of 100 mg/kg intraperitonealt.

[5] = test system: rats; experiment: acute toxicity in rats, intraperitoneal; type: in vivo; details: 100 mg/kg intraperitoneal
Description: as §1

[6] = Life Sci. 31 (1982), 637 et seq.

dopamine D1 receptor, sequence (P18901 whole entry): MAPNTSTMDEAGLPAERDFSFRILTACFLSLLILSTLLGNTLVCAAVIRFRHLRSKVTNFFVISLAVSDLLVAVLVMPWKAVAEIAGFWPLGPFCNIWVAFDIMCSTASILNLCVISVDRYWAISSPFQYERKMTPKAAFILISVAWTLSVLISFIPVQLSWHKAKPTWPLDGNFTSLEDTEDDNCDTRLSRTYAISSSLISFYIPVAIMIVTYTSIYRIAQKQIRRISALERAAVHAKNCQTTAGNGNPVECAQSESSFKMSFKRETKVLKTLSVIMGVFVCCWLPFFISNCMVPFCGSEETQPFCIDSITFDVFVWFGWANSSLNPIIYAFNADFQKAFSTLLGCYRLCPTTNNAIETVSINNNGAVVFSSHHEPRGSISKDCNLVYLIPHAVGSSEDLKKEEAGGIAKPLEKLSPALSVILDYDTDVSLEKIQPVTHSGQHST

Compound: Oc1cc2c(cc1O)C(c1ccccc1)CNCC2 (stereo not shown) [SKF 38393, 2,3,4,5-tetrahydro-7,8-dihydroxy-1-phenyl-1H-3-benzazepine]
dopamine D1 activity [1, 6]: selective but partial dopamine D1 agonists

Ki [2]: 0.006 µM
Compound: CN1CCc2cc(Cl)c(O)cc2C(c2cccc3ccoc23)C1 (racemic) [Example No. 5h, 8-chloro-7-hydroxy-3-methyl-5-(7-benzofuranyl)-2,3,4,5-tetrahydro-1H-3-benzazepine]

Compound: CN1CCc2cc(Cl)c(O)cc2[C@@H](c2ccccc2)C1 [SCH 23390, R-8-chloro-7-hydroxy-2,3,4,5-tetrahydro-3-methyl-5-phenyl-1H-3-benzazepine]
dopamine D1 activity ([1]; Eur.J.Pharmacol. 91 (1983), 153 et seq.): selective D1 dopamine antagonist | duration of action [3]: short duration of action | peroral adsorption [3]: poor peroral adsorption

Compound: Br.CN1CCc2cc(Cl)c(O)cc2C(c2ccc3c(c2)CCC3)C1 (stereo not shown) [Example No. 5a, 8-chloro-7-hydroxy-3-methyl-5-(5-indanyl)-2,3,4,5-tetrahydro-1H-3-benzazepine hydrobromide]
toxicity in mice [4]: atoxic | toxicity in rats [5]: atoxic

Compound: 2,3,4,5-tetrahydro-9-chloro-7,8-dihydroxy-1-(4-hydroxyphenyl)-1H-3-benzazepine [SKF 82526]
dopamine D1 activity [1, 6]: selective but partial dopamine D1 agonists

Ki [2]: 0.021 µM
Compound: CN1CCc2cc(Cl)c(O)cc2C(c2ccc3c(c2)CCCC3)C1 (racemic) [Example No. 5j, 8-chloro-7-hydroxy-5-(1,2,3,4-tetrahydronaphth-6-yl)-3-methyl-2,3,4,5-tetrahydro-1H-3-benzazepine hydrochloride]

Ki [2]: 0.01 µM
Compound: CN1CCc2cc(Cl)c(O)cc2C(c2ccc(Cl)c3c2OCCC3)C1 (racemic) [Example No. 5f, 8-chloro-7-hydroxy-3-methyl-5-(5-chlorochroman-8-yl)-2,3,4,5-tetrahydro-1H-3-benzazepine]

Reference: patent US4751222A, “2,3,4,5-tetrahydro-1H-3-benzazepines and CNS affecting use thereof” (Novo Industri A/S, priority 1985, dated 1988)
